Data set [1] has as its target T1, human neurokinin-3 receptors expressed in CHO cell lines (Homo sapiens, UniProt P29371).
T1 construct: expressed in transfected cells; host or cells: CHO cells
T1 sequence (P29371 1-465): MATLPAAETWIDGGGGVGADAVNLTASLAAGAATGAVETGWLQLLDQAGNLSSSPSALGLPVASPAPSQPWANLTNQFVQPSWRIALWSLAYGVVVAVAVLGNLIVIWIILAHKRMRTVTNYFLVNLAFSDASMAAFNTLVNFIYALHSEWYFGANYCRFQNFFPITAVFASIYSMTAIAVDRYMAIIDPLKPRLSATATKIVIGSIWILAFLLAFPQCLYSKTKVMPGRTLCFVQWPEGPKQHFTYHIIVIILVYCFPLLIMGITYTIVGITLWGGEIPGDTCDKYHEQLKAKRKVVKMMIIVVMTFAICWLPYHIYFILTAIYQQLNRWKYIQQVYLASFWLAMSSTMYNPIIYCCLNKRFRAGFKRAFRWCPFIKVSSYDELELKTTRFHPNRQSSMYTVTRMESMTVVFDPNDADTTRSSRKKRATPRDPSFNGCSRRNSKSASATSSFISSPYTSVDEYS
The experiment in a line: Binding affinity in hNK-3-CHO. The conditions noted are these: human NK-3 receptors in CHO cell lines; radioligand [125I]-[Me-Phe7]-NKB. As for the experimental part: The activity of the compounds of the present invention, as NK3 ligands, is determined by their ability to inhibit the binding of the radiolabelled NK3 ligands. [^125I]-[Me-Phe^7]-NKB or [^3H]-Senktide, to guinea-pig and human NK3 receptors (Renzetti et al. 1991, Neuropeptide, 18, 104-114; Buell et al, 1992, FEBS, 299(1), 90-95; Chung et al, 1994, Biochem. Biophys. Res. Commun., 198(3), 967-972).
The binding assays utilized allow the determination of the concentration of the individual compound required to reduce by 50% the [^125I]-[Me-Phe^7]-NKB and [^3H]-Senktide specific binding to NK3 receptor in equilibrium conditions (IC50).
Binding assays provide for each compound tested a mean IC50 value of 2-5 separate experiments performed in duplicate or triplicate. […] The NK3-antagonist activity of the compounds of the present invention is determined by their ability to inhibit senktide-induced contraction of the guinea-pig ileum (Maggi et al, 1990, Br. J. Pharmacol., 101, 996-1000) and rabbit isolated iris sphincter muscle (Hall et al., 1991, Eur. J. Pharmacol., 199, 9-14) and human NK3 receptors-mediated Ca^++ mobilization (Mochizuki et al. 1994, J. Biol. Chem., 269, 9651-9658). Guinea-pig and rabbit in-vitro functional assays provide for each compound tested a mean KB value of 3-8 separate experiments, where KB is the concentration of the individual compound required to produce a 2-fold rightward shift in the concentration-response curve of senktide. Human receptor functional assay allows the determination of the concentration of the individual compound required to reduce by 50% (IC50 values) the Ca^++ mobilization induced by the agonist NKB. In this assay, the compounds of the present invention behave as antagonists.

Structures are written as SMILES. pIC50: −log10 of the molar value. Where a name gives a salt, the structure may show the parent alone.

Consider 21 molecules from patent publication US20020068827A1, “Quinoline-4-carboxamide derivatives, their preparation and their use as neurokinin 3 ( NK-3 ) - and neurokinin 2 ( NK-3 ) receptor antagonists” (SmithKline Beecham S.p.A., priority 1995, published 2002).

Turning to `CC[C@H](NC(=O)c1c(OCCCN2CCN(C)CC2)c(-c2ccccc2)nc2ccccc12)c1ccccc1` (as salt: HCl) [Example 31], the melting point – broadly, the temperature, or range, at which the solid turns liquid – is 160 to 170 °C.

`CC[C@H](NC(=O)c1c(OCCCN2CCN(c3ccccc3)CC2)c(-c2ccccc2)nc2ccccc12)c1ccccc1` (as salt: HCl) [Example 33]: the melting point was 86 °C (dec.). Still for that read-out and setting: the figure for `CC[C@H](NC(=O)c1c(OCCCN2CCN(c3ncccn3)CC2)c(-c2ccccc2)nc2ccccc12)c1ccccc1` (as salt: HCl) [Example 40] is 140 °C (dec.). On to `CC[C@H](NC(=O)c1c(OCCO)c(-c2ccccc2)nc2ccccc12)c1ccccc1` [Example 2, (S)-N-(α-ethylbenzyl)-3-(2-hydroxyethoxy)-2-phenylquinoline-4-carboxamide], for which the pIC50 (in general, the IC50 on a negative log10 scale, so that one unit is a factor of ten) in data set [1] is 8.80. Consider `CC[C@H](NC(=O)c1c(OCCN2Cc3ccccc3C2)c(-c2ccccc2)nc2ccccc12)c1ccccc1.Cl.Cl` [Example 5, (S)-N-(α-ethylbenzyl)-3-[2-(2-isoindolinyl)ethoxy]-2-phenylquinoline-4-carboxamide Dihydrochloride], for which the melting point was 95 °C (dec.). In data set [1], this molecule showed a pIC50 of 8.92. Molecule `CC[C@H](NC(=O)c1c(OCCN2C(=O)Cc3ccccc3C2=O)c(-c2ccccc2)nc2ccccc12)c1ccccc1` [Example 6, (S)-N-(α-ethylbenzyl)-3-(2-homophthalimidoethoxy)-2-phenylquinoline-4-carboxamide] came in with a melting point of 159 to 161 °C. In addition, the pIC50 in data set [1] is 9.10. For `CC[C@H](NC(=O)c1c(OCCCN2C(=O)c3ccccc3C2=O)c(-c2ccccc2)nc2ccccc12)c1ccccc1` [Example 9, (S)-N-(α-ethylbenzyl)-3-(3-phthalimidopropoxy)-2-phenylquinoline-4-carboxamide] the same measures were 125 to 128 °C and 8.49. As for `CC[C@H](NC(=O)c1c(OCCCN)c(-c2ccccc2)nc2ccccc12)c1ccccc1` [Example 11, (S)-N-(α-ethylbenzyl)-3-(3-aminopropoxy)-2-phenylquinoline-4-carboxamide Hydrochloride], in data set [1], the pIC50 is 8.59. `CC[C@H](NC(=O)c1c(OCCN2Cc3ccccc3CC2=O)c(-c2ccccc2)nc2ccccc12)c1ccccc1` [Example 14, (S)-N-(α-ethylbenzyl)-3-[2-(1,4-dihydro-3(2H)-isoquinolinon-2-yl)ethoxy]-2-phenylquinoline-4-carboxamide] had a melting point of 153 to 156 °C. Further, in data set [1], the pIC50 is 8.77. With `CC[C@H](NC(=O)c1c(OCCN2C(=O)CCC2=O)c(-c2ccccc2)nc2ccccc12)c1ccccc1` [Example 15, (S)-N-(α-ethylbenzyl)-3-(2-succinimidoethoxy)-2-phenylquinoline-4-carboxamide], the melting point is 80 °C (dec.). The same measure, in the same setting: to `CC[C@H](NC(=O)c1c(OCCN2C(=O)C=CC2=O)c(-c2ccccc2)nc2ccccc12)c1ccccc1` [Example 16, (S)-N-(α-ethylbenzyl)-3-(2-maleimidoethoxy)-2-phenylquinoline-4-carboxamide] belongs 74 to 78 °C. Molecule `CC[C@H](NC(=O)c1c(OCCN2C(=O)CNC2(C)C)c(-c2ccccc2)nc2ccccc12)c1ccccc1` [Example 17, (S)-N-(α-ethylbenzyl)-3-[2-(2,2-dimethyl-4-oxo-3-imidazolidinyl)ethoxy]-2-phenylquinoline-4-carboxamide] returned a melting point of 160 to 162 °C. The pIC50 in data set [1] is 8.47. For `CC[C@H](NC(=O)c1c(OCCCN2CCN(c3ccccc3OC)CC2)c(-c2ccccc2)nc2ccccc12)c1ccccc1.Cl.Cl` [Example 18, (S)-N-(α-ethylbenzyl)-3-{3-[4-(2-methoxyphenyl)piperazin-1-yl]propoxy}-2-phenylquinoline-4-carboxamide Dihydrochloride] the same measures were 151 to 155 °C and 9.40. The corresponding values for `CC[C@H](NC(=O)c1c(OCCN2C(=O)[C@@H](c3ccccc3)NC2(C)C)c(-c2ccccc2)nc2ccccc12)c1ccccc1` [Example 21, (S)-N-(α-ethylbenzyl)-3-{2-[2,2-dimethyl-5-(R)-phenyl-4-oxo-3-imidazolidinyl]ethoxy}-2-phenylquinoiine-4-carboxamide] are 147 to 150 °C and 9.05. The corresponding values for `CC[C@H](NC(=O)c1c(OCCN2CCc3ccccc3C2=O)c(-c2ccccc2)nc2ccccc12)c1ccccc1` [Example 22, (S)-N-(α-ethylbenzyl)-3-[2-(3,4-dihydro-1(2H)-isoquinolinon-2-yl)ethoxy]-2-phenylquinoline-4-carboxamide] are 71 °C (dec.) and 8.89.

As to `CC[C@H](NC(=O)c1c(CN2CCN(c3ccccc3)CC2)c(-c2ccccc2)nc2ccccc12)c1ccccc1` [Example 30], the melting point was in the range of 142 to 145 °C. The same molecule had a negative logarithm of the IC50 (pIC50) in data set [1] of 8.96. `CC[C@H](NC(=O)c1c(OCCCN2CCN(C)CC2)c(-c2ccccc2)nc2ccccc12)c1ccccc1` [Example 31] showed a pIC50 in data set [1] of 8.48. Same read-out and setting: to `CC[C@H](NC(=O)c1c(OCCCN2CCN(c3ccccc3)CC2)c(-c2ccccc2)nc2ccccc12)c1ccccc1` [Example 33] belongs 9.15. `CC[C@H](NC(=O)c1c(OCCCN2CCN(c3cccc(Cl)c3)CC2)c(-c2ccccc2)nc2ccccc12)c1ccccc1` [Example 34] displayed a melting point of 115 to 135 °C. In data set [1], the pIC50 was 9.10. `CC[C@H](NC(=O)c1c(OCCCN2CCN(c3ncccn3)CC2)c(-c2ccccc2)nc2ccccc12)c1ccccc1` [Example 40]: the pIC50 in data set [1] was 8.96. For the molecule `CC[C@H](NC(=O)c1c(OCCCN2C(=O)c3nccnc3C2=O)c(-c2ccccc2)nc2ccccc12)c1ccccc1` [Example 42], the melting point was in the range of 100 to 105 °C. In data set [1], this molecule had a pIC50 of 8.57.
